Measurements taken from ChEMBL document CHEMBL1201862, “PubChem BioAssay data set” (2004).
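Test compounds were applied to cells in 96-well plates for 48 hours at 5 doses. GI50 is the concentration that inhibits growth by half.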 Active and inactive are the calls of the source. No stated cut-off is given here; in the data, active = GI50 up to about 1.1 µM and inactive = higher.

How the values were obtained:
Experiment in all cases: inhibition of tumour cell growth, NCI panel, 48 h
RXF 393 = tested on: RXF 393
EKVX = tested on: EKVX
SNB-78 = tested on: SNB-78
UO-31 = tested on: UO-31
SK-MEL-2 = tested on: SK-MEL-2
IGROV-1 = tested on: IGROV-1
HCC 2998 = tested on: HCC 2998
Malme-3M = tested on: Malme-3M
SK-OV-3 = tested on: SK-OV-3
MOLT-4 = tested on: MOLT-4
OVCAR-3 = tested on: OVCAR-3
NCI/ADR-RES = tested on: NCI/ADR-RES
DLD-1 = tested on: DLD-1
DMS-273 = tested on: DMS-273
DMS-114 = tested on: DMS-114
MDA-N = tested on: MDA-N
ACHN = tested on: ACHN
MDA-MB-435 = tested on: MDA-MB-435
Hs-578T = tested on: Hs-578T
DU-145 = tested on: DU-145

SMILES | GI50 (RXF 393) | GI50 (EKVX) | GI50 (SNB-78) | GI50 (UO-31) | GI50 (SK-MEL-2) | GI50 (IGROV-1) | GI50 (HCC 2998) | GI50 (Malme-3M) | GI50 (SK-OV-3) | GI50 (MOLT-4) | GI50 (OVCAR-3) | GI50 (NCI/ADR-RES) | GI50 (DLD-1) | GI50 (DMS-273) | GI50 (DMS-114) | GI50 (MDA-N) | GI50 (ACHN) | GI50 (MDA-MB-435) | GI50 (Hs-578T) | GI50 (DU-145)
S=P1(N2CCCCC2)Oc2ccc3ccccc3c2-c2c(ccc3ccccc23)O1 | > 89.7 µM (inactive) | > 53.5 µM (inactive) | 71.4 µM (inactive) | > 80.7 µM (inactive) | 31.6 µM (inactive) | > 100 µM (inactive) | > 100 µM (inactive) | > 46 µM (inactive) | > 92.5 µM (inactive) | > 100 µM (inactive) | 34.9 µM (inactive) | > 51.2 µM (inactive) | 91.2 µM (inactive) | > 80.2 µM (inactive) | > 83 µM (inactive) | – | – | – | – | –
COc1c2c(nc3ccccc13)-c1cc3c(c(=O)n1C2)COC(=O)C3(O)CC(=O)N1CCOCC1 (stereo not given) | 6.01 µM (inactive) | 43.2 µM (inactive) | 32.4 µM (inactive) | 7.16 µM (inactive) | 26.8 µM (inactive) | 44.1 µM (inactive) | 18.2 µM (inactive) | 16.3 µM (inactive) | 9.48 µM (inactive) | 0.29 µM (active) | 19.4 µM (inactive) | – | 40.4 µM (inactive) | 1.11 µM (active) | 0.664 µM (active) | 19.5 µM (inactive) | 3.13 µM (inactive) | 18.7 µM (inactive) | 12.6 µM (inactive) | 3.3 µM (inactive)
CCC1=CCN(c2ccc(C)cc2)OC1c1ccc(OC)cc1 (stereo not given) | 69.7 µM (inactive) | > 100 µM (inactive) | > 100 µM (inactive) | 90.6 µM (inactive) | 32.3 µM (inactive) | > 100 µM (inactive) | 70.5 µM (inactive) | 66.4 µM (inactive) | > 100 µM (inactive) | > 100 µM (inactive) | > 100 µM (inactive) | – | 58.1 µM (inactive) | 69.8 µM (inactive) | > 100 µM (inactive) | – | > 100 µM (inactive) | – | – | –
c1ccc2c(c1)nnn2CNc1ccc(N2CCOCC2)cc1 | > 100 µM (inactive) | > 100 µM (inactive) | > 100 µM (inactive) | > 100 µM (inactive) | > 100 µM (inactive) | > 100 µM (inactive) | > 100 µM (inactive) | > 100 µM (inactive) | > 100 µM (inactive) | > 100 µM (inactive) | > 100 µM (inactive) | – | > 100 µM (inactive) | > 100 µM (inactive) | > 100 µM (inactive) | – | 67.3 µM (inactive) | – | – | –
CCCCc1c2cnccc2c(CCCC)c2c1[nH]c1ccccc12 | 7.13 µM (inactive) | 14.6 µM (inactive) | 25.2 µM (inactive) | 10.4 µM (inactive) | 12.6 µM (inactive) | 12.4 µM (inactive) | 23.9 µM (inactive) | 11.9 µM (inactive) | 27.4 µM (inactive) | 2.84 µM (inactive) | 5.26 µM (inactive) | – | 9.1 µM (inactive) | 10.7 µM (inactive) | 3.99 µM (inactive) | – | 10 µM (inactive) | – | – | –
C(=C/c1nc2ccccc2o1)/c1ccc2c(c1)OCO2 | 14.7 µM (inactive) | 55.5 µM (inactive) | 25.7 µM (inactive) | 17 µM (inactive) | 8.34 µM (inactive) | 16.1 µM (inactive) | 6.32 µM (inactive) | 27.3 µM (inactive) | 27.2 µM (inactive) | 45.7 µM (inactive) | 12.1 µM (inactive) | 14.1 µM (inactive) | 5.74 µM (inactive) | 4.56 µM (inactive) | 16.9 µM (inactive) | – | – | – | – | –
COc1ccc(OC)c(/C=C/NC=O)c1 | > 100 µM (inactive) | > 100 µM (inactive) | > 100 µM (inactive) | > 100 µM (inactive) | > 100 µM (inactive) | > 100 µM (inactive) | > 100 µM (inactive) | > 100 µM (inactive) | > 100 µM (inactive) | > 100 µM (inactive) | > 100 µM (inactive) | – | > 100 µM (inactive) | > 100 µM (inactive) | > 100 µM (inactive) | – | > 100 µM (inactive) | – | – | > 100 µM (inactive)
